Experimental data reported in patent US10576085B2, “Substituted aminopurine compounds, compositions thereof, and methods of treatment therewith” (Signal Pharmaceuticals, LLC, priority 2016, dated 2020).

Columns and labels:
[1] = system: cancer cell lines of Table 2; experiment: Multiplexed cytotoxicity assay: cell proliferation (relative cell count IC50, GI50); type: cell-based
Protocol: Cells are grown in RPMI1640, 10% FBS, 2 mM L-alanyl-L-Glutamine, 1 mM Na pyruvate or a special medium in a humidified atmosphere of 5% CO2 at 37° C. Cells are seeded into 384-well plates and incubated in a humidified atmosphere of 5% CO2 at 37° C. Compounds are added 24 h post cell seeding. At the same time, a time zero untreated cell plate is generated. After a 72 hour incubation period, cells are fixed and stained with fluorescently labeled antibodies and nuclear dye to allow visualization of nuclei, apoptotic cells and mitotic cells. Apoptotic cells are detected using an anti-active caspase-3 antibody. Mitotic cells are detected using an anti phospho-histone-3 antibody. Compounds are serially diluted 3.16-fold and assayed over 10 concentrations in a final assay concentration of 0.1% DMSO from the highest test concentration of 10 μM. Automated fluorescence microscopy was carried out using a Molecular Devices ImageXpress Micro XL high-content imager, and images are collected with a 4× objective.
(§1) Sixteen-bit TIFF images are acquired and analyzed with MetaXpress 5.1.0.41 software. Cell proliferation is measured by the signal intensity of the incorporated nuclear dye. The cell proliferation assay output is referred to as the relative cell count. To determine the cell proliferation end point, the cell proliferation data output is transformed to percentage of control (POC) using the following formula: POC=relative cell count(compound wells)/relative cell count(vehicle wells)×100
(§2) GI50 is the concentration needed to reduce the observed growth by half. This is the concentration that inhibits the growth to the level midway between growth in untreated cells and the number of cells seeded in the well (Time zero value). The IC50 values are calculated using nonlinear regression to fit data to a sigmoidal 4 point, 4 parameter One-Site dose response model, where: y(fit)=A+[(B−A)/(1+((C/x)^D))].
In Another Experiment, Cells were Grown in RPMI1640, 10% FBS, 2 mM L-alanyl-L-Glutamine, 1 mM Na pyruvate or a special medium in a humidified atmosphere of 5% CO2 at 37° C. Cells were seeded into 384-well plates and incubated in a humidified atmosphere of 5% CO2 at 37° C. Compounds were added 24 h post cell seeding. At the same time, a time zero untreated cell plate was generated. After a 72 hour incubation period, cells were fixed and stained with fluorescently labeled antibodies and nuclear dye to allow visualization of nuclei, apoptotic cells and mitotic cells. Apoptotic cells were detected using an anti-active caspase-3 antibody. Mitotic cells were detected using an anti phospho-histone-3 antibody. Compounds were serially diluted 3.16-fold and assayed over 10 concentrations in a final assay concentration of 0.1% DMSO from the highest test concentration of 10 μM. Automated fluorescence microscopy was carried out using a Molecular Devices ImageXpress Micro XL high-content imager, and images were collected with a 4× objective.
as §1, with “images were” for “images are”, “proliferation was” for “proliferation is”, “output was” for “output is”
as §2, with “GI50 refers to” for “GI50 is”, “This corresponds to” for “This is”, “values were” for “values are”

NLK = NLK (Homo sapiens, UniProt Q9UBE8); experiment: Known kinases inhibited (no method given); type: biochemical
[2] = Homo sapiens, A204, A204, Soft Tissue, Sarcoma
[3] = Homo sapiens, A704, A704, Kidney
[4] = Homo sapiens, ARH-77, ARH77, Myeloma
[5] = Homo sapiens, BT-474, BT474, Breast
[6] = Homo sapiens, BT-549, BT549, Breast
[7] = Homo sapiens, C-4-II, C4II, Female GU, Cervix
[8] = Homo sapiens, CCF-STTG1, CCFSTTG1, CNS, Glioma
[9] = Homo sapiens, CFPAC-1, CFPAC1, Pancreas
[10] = Homo sapiens, ChaGo-K-1, CHAGOK1, Lung, NSCLC
[11] = Homo sapiens, K562, K562, Leukemia
[12] = Homo sapiens, ME-180, ME180, Female GU, Ovary
[13] = Homo sapiens, NALM-6, NALM6, Leukemia
[14] = Homo sapiens, NCI-H295R, NCIH295R, Endocrine, Adrenal gland
[15] = Homo sapiens, NCI-H460, NCIH460, Lung, NSCLC
[16] = Homo sapiens, OVCAR-3, OVCAR3, Female GU, Ovary
[17] = Homo sapiens, SK-NEP-1, SKNEP1, Kidney
[18] = Homo sapiens, SK-UT-1, SKUT1, Soft Tissue, Sarcoma
[19] = Homo sapiens, SNU-16, SNU16, Stomach
[20] = Homo sapiens, SiHa, Female GU, Cervix
[21] = Homo sapiens, T98G, CNS, Glioma
[22] = KHOS-240S, KHOS240S, Soft Tissue, Osteosarcoma

Sequence of NLK (Q9UBE8 whole entry): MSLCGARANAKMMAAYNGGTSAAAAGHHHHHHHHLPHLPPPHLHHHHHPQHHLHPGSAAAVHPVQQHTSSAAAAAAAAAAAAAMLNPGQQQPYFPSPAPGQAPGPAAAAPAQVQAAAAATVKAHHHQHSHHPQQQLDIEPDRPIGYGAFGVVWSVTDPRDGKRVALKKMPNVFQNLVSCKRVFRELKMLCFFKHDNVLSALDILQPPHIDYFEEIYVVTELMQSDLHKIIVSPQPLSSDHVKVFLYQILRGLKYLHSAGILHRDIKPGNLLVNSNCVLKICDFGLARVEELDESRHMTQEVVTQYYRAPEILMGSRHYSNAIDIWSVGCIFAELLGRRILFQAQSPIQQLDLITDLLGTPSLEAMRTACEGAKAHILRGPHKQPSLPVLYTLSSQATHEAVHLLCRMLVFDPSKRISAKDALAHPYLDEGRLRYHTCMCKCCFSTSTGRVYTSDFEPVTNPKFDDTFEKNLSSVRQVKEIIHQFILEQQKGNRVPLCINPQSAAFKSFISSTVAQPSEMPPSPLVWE

C[C@]1(C(N)=O)CC[C@@H](n2c(Nc3c(Cl)cc(Cl)cc3Cl)nc3cnc(N[C@@H]4CCOC[C@H]4F)nc32)CC1 [Compound 1, cis-4-[2-{[(3S,4R)-3-fluorooxan-4-yl]amino}-8-(2,4,6-trichloroanilino)-9H-purin-9-yl]-1-methyl cyclohexane-1-carboxamide]
10 µM: GI50 ([1]; BC1, Lymphoma) | IC50 ([1]; BC1, Lymphoma) | GI50 ([1]; C4I, Female GU, Cervix) | IC50 ([1]; C4I, Female GU, Cervix) | GI50 ([1]; CEM/C1, CEMC1, Leukemia) | IC50 ([1]; CEM/C1, CEMC1, Leukemia) | IC50 ([1]; CML-T1, CMLT1, Leukemia) | IC50 ([1]; DB, Lymphoma) | IC50 ([1]; HS229T, Lung, NSCLC) | IC50 ([1]; HS688AT, Skin, Melanoma) | IC50 ([1]; HS729, Soft Tissue, Sarcoma) | IC50 ([1]; HS821T, Soft Tissue, Sarcoma) | IC50 ([1]; HS888SK, Soft Tissue, Osteosarcoma) | GI50 ([1]; HS895T, Skin, Melanoma) | IC50 ([1]; HS895T, Skin, Melanoma) | IC50 ([1]; HS934T, Skin, Melanoma) | IC50 ([1]; HT, Lymphoma) | GI50 [1, 2] | IC50 [1, 2] | IC50 ([1]; Homo sapiens, A253, A253, Head and Neck) | GI50 [1, 3] | IC50 [1, 3] | GI50 [1, 4] | IC50 [1, 4] | IC50 ([1]; Homo sapiens, ASPC1, ASPC1, Pancreas) | IC50 ([1]; Homo sapiens, BT-20, BT20, Breast) | GI50 [1, 5] | IC50 [1, 5] | GI50 [1, 6] | IC50 [1, 6] | IC50 ([1]; Homo sapiens, BV-173, BV173, Leukemia) | GI50 [1, 7] | IC50 [1, 7] | IC50 ([1]; Homo sapiens, CAPAN-1, CAPAN1, Pancreas) | GI50 [1, 8] | IC50 [1, 8] | GI50 [1, 9] | IC50 [1, 9] | IC50 ([1]; Homo sapiens, COLO 320DM, COLO320DM, Colon) | IC50 ([1]; Homo sapiens, Ca-Ski, CASKI, Female GU, Ovary) | IC50 ([1]; Homo sapiens, Caov-3, CAOV3, Female GU, Ovary) | GI50 [1, 10] | IC50 [1, 10] | IC50 ([1]; Homo sapiens, DMS-53, DMS53, Lung, SCLC) | IC50 ([1]; Homo sapiens, Daudi, Lymphoma) | IC50 ([1]; Homo sapiens, Detroit 562, DETROIT562, Head and Neck) | IC50 ([1]; Homo sapiens, EFM-19, EFM19, Breast) | IC50 ([1]; Homo sapiens, HT1197, HT1197, Bladder) | GI50 [1, 11] | IC50 [1, 11] | IC50 ([1]; Homo sapiens, MDA-MB-415, MDAMB415, Breast) | IC50 ([1]; Homo sapiens, MDA-MB-436, MDAMB436, Breast) | GI50 [1, 12] | IC50 [1, 12] | GI50 [1, 13] | IC50 [1, 13] | IC50 ([1]; Homo sapiens, NCI-H69, NCIH69, Lung, SCLC) | GI50 [1, 14] | IC50 [1, 14] | IC50 ([1]; Homo sapiens, NCI-H446, NCIH446, Lung, SCLC) | GI50 [1, 15] | IC50 [1, 15] | IC50 ([1]; Homo sapiens, NCI-H596, NCIH596, Lung, NSCLC) | IC50 ([1]; Homo sapiens, OE19, OE19, Head and Neck, Esophageal) | GI50 [1, 16] | IC50 [1, 16] | IC50 ([1]; Homo sapiens, PFSK-1, PFSK1, CNS, Glioma) | IC50 ([1]; Homo sapiens, Raji, Lymphoma) | IC50 ([1]; Homo sapiens, SK-N-DZ, SKNDZ, CNS, Neuroblastoma) | GI50 [1, 17] | IC50 [1, 17] | IC50 ([1]; Homo sapiens, SK-OV-3, SKOV3, Female GU, Ovary) | GI50 [1, 18] | IC50 [1, 18] | GI50 [1, 19] | IC50 [1, 19] | GI50 [1, 20] | IC50 [1, 20] | GI50 ([1]; Homo sapiens, T47D, Breast) | IC50 ([1]; Homo sapiens, T47D, Breast) | GI50 [1, 21] | IC50 [1, 21] | IC50 ([1]; Homo sapiens, U138-MG, U138MG, CNS, Glioma) | IC50 ([1]; Homo sapiens, U-118-MG, U118MG, CNS, Glioma) | GI50 ([1]; J82, Bladder) | IC50 ([1]; J82, Bladder) | GI50 [1, 22] | IC50 [1, 22] | GI50 ([1]; KLE, Female GU, Uterus) | IC50 ([1]; KLE, Female GU, Uterus) | GI50 ([1]; KPL-1, KPL1, Breast) | IC50 ([1]; KPL-1, KPL1, Breast) | IC50 ([1]; SKPNDW, Stomach) | IC50 ([1]; TE125T, Soft Tissue, Sarcoma) | IC50 ([1]; TT, Endocrine, Thyroid) | GI50 ([1]; Y79, Eye-retinoblastoma) | IC50 ([1]; Y79, Eye-retinoblastoma)
anti-proliferative activity: Anti-proliferative activity ([1]; variety of cancer cell lines (Table 3))
inhibited: Kinase inhibition (NLK)
